# Assay results from ChEMBL document CHEMBL1201862, “PubChem BioAssay data set” (2004).
#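 These data come from cells grown in 96-well plates and exposed to compound for 48 hours at five concentrations. At the GI50, growth is halved.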 Active and inactive are the calls of the source. Rule as the data show it: active = GI50 up to about 1.1 µM and inactive = higher.
# Experiments:
# Assay in all cases: NCI tumour cell line growth inhibition, 48 h
# SF-268 = test system: SF-268
# HL-60 = test system: HL-60
# RXF 393 = test system: RXF 393
# MDA-MB-231 = test system: MDA-MB-231
# 786-0 = test system: 786-0
# BT-549 = test system: BT-549
# T47D = test system: T47D
# TK-10 = test system: TK-10
# MDA-MB-435 = test system: MDA-MB-435
# SK-MEL-28 = test system: SK-MEL-28
# MOLT-4 = test system: MOLT-4
# U-251 = test system: U-251
# OVCAR-3 = test system: OVCAR-3
# SK-MEL-2 = test system: SK-MEL-2
# ACHN = test system: ACHN
# NCI-H226 = test system: NCI-H226
# Malme-3M = test system: Malme-3M
# UACC-257 = test system: UACC-257
# MCF7 = test system: MCF7
# COLO 205 = test system: COLO 205
Compound,GI50 (SF-268),GI50 (HL-60),GI50 (RXF 393),GI50 (MDA-MB-231),GI50 (786-0),GI50 (BT-549),GI50 (T47D),GI50 (TK-10),GI50 (MDA-MB-435),GI50 (SK-MEL-28),GI50 (MOLT-4),GI50 (U-251),GI50 (OVCAR-3),GI50 (SK-MEL-2),GI50 (ACHN),GI50 (NCI-H226),GI50 (Malme-3M),GI50 (UACC-257),GI50 (MCF7),GI50 (COLO 205)
O=c1cc(-c2ccccc2)oc2c1ccc1nc3ccccc3c(O)c12,39.8 µM (inactive),59.7 µM (inactive),31.6 µM (inactive),> 100 µM (inactive),42 µM (inactive),33.5 µM (inactive),40.8 µM (inactive),60.1 µM (inactive),> 100 µM (inactive),> 100 µM (inactive),57.4 µM (inactive),57.3 µM (inactive),79.1 µM (inactive),> 100 µM (inactive),43.5 µM (inactive),> 100 µM (inactive),> 100 µM (inactive),> 100 µM (inactive),36.4 µM (inactive),> 100 µM (inactive)
O=c1cc(O)c2c(O)cc(O)cc2o1,> 100 µM (inactive),> 100 µM (inactive),> 100 µM (inactive),> 100 µM (inactive),> 100 µM (inactive),> 100 µM (inactive),> 100 µM (inactive),> 100 µM (inactive),> 100 µM (inactive),> 100 µM (inactive),> 100 µM (inactive),> 100 µM (inactive),> 100 µM (inactive),> 100 µM (inactive),> 100 µM (inactive),> 100 µM (inactive),> 100 µM (inactive),> 100 µM (inactive),> 100 µM (inactive),> 100 µM (inactive)
C=CCNC(=S)N/N=C1\C(=O)N(CN2CCOCC2)c2ccc([N+](=O)[O-])cc21,58.6 µM (inactive),24.6 µM (inactive),> 100 µM (inactive),39.8 µM (inactive),15.6 µM (inactive),15.1 µM (inactive),17 µM (inactive),5.36 µM (inactive),55.1 µM (inactive),> 100 µM (inactive),5.98 µM (inactive),18.1 µM (inactive),24.3 µM (inactive),> 100 µM (inactive),5.3 µM (inactive),> 100 µM (inactive),> 100 µM (inactive),16.6 µM (inactive),33.3 µM (inactive),34.4 µM (inactive)
Cc1ccc(CC(Cc2ccc(C)cc2C(=O)O)C(=O)O)cc1 (stereo not given),> 100 µM (inactive),> 100 µM (inactive),> 100 µM (inactive),> 100 µM (inactive),> 100 µM (inactive),> 100 µM (inactive),> 100 µM (inactive),> 100 µM (inactive),> 100 µM (inactive),> 100 µM (inactive),> 100 µM (inactive),> 100 µM (inactive),> 100 µM (inactive),> 100 µM (inactive),> 100 µM (inactive),> 100 µM (inactive),> 100 µM (inactive),> 100 µM (inactive),> 100 µM (inactive),> 100 µM (inactive)
CC1=C(C)C(=O)C(C2=C(C3=CC(=O)C(C)=C(C)C3=O)C(=O)c3ccccc3C2=O)=CC1=O,3.26 µM (inactive),0.255 µM (active),1.71 µM (inactive),2.37 µM (inactive),1.88 µM (inactive),2.57 µM (inactive),2.96 µM (inactive),6.35 µM (inactive),1.5 µM (inactive),2.3 µM (inactive),1.41 µM (inactive),3.62 µM (inactive),2.68 µM (inactive),2.32 µM (inactive),2.31 µM (inactive),6.14 µM (inactive),1.12 µM (active),1.99 µM (inactive),1.71 µM (inactive),0.863 µM (active)
CN(C)/C=C/c1c2c(nc3ccccc13)C(=O)c1cccnc1C2=O,0.41 µM (active),0.299 µM (active),0.705 µM (active),0.867 µM (active),0.226 µM (active),0.402 µM (active),3.97 µM (inactive),1.4 µM (inactive),0.548 µM (active),0.552 µM (active),2.01 µM (inactive),0.353 µM (active),0.0568 µM (active),1.62 µM (inactive),0.217 µM (active),0.292 µM (active),0.697 µM (active),0.668 µM (active),0.262 µM (active),2.07 µM (inactive)
